Assay results from patent US8426447B2, “Spiro-tricyclic ring compounds as beta-secretase modulators and methods of use” (Amgen Inc., priority 2008, dated 2013).
pIC50: −log10 of the molar value.

Columns and labels:
[1] = target: T1, BACE1 (Homo sapiens, UniProt P56817); assay: In Vitro BACE Cell-based Assay (HEK cell assay): Aβ40 in conditioned medium of cells stably expressing Amyloid Precursor Protein, sandwich ELISA
Method in brief: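 First, APP-stable cells grow 24 h at 37° C., 5% CO2. Next, test compounds are added for 24 h (10 doses, 0.1% DMSO). Finally, medium Aβ40 is determined by pAb40/6E10 sandwich ELISA with Europium TRF, and IC50 is calculated.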

[2] = target: T1, BACE1; assay: In Vitro Enzymatic BACE FRET (Fluorescence Resonance Energy Transfer) Assay; assay type: biochemical
Method in brief: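 Buffer 0.05 M acetate pH 4.2 with 10% DMSO final and 100 uM genapol; reaction started with 50 nM FRET peptide substrate (fluorophore/quencher flanking BACE cleavage site), incubated one hour. Stopped with Tris buffer raising pH to neutrality, then fluorescence read.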

[3] = Table III, IC50's in uM ranges, read-out: HEK cell assay
[4] = Table III, IC50's in uM ranges, read-out: BACE1 FRET assay
[5] = Table IV, class symbols, read-out: HEK cell assay
[6] = Table IV, class symbols, read-out: BACE1 FRET assay
[7] = HEK cells, read-out: HEK cell assay
[8] = HEK cell-based assay, Aβ40 in conditioned medium, IC50 class symbols, read-out: HEK cell assay
[9] = in vitro BACE FRET enzyme assay, IC50 class symbols, read-out: BACE1 FRET assay

T1 sequence (P56817 46-501, species assumed): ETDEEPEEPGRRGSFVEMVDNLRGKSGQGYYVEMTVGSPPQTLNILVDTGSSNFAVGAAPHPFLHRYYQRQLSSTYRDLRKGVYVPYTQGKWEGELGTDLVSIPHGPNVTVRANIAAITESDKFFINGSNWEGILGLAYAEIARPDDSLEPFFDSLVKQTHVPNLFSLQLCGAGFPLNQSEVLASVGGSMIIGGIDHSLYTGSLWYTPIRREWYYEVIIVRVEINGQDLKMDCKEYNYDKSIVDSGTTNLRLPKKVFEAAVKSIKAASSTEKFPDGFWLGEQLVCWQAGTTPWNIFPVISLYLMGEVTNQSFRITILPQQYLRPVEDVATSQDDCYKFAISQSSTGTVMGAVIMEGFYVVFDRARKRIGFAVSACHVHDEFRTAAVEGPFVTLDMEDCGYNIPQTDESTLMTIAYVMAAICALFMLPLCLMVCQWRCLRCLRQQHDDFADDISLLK

Structure (SMILES)	pIC50 ([2]; read-out: BACE1 FRET assay)	pIC50 [1, 5]	pIC50 [2, 6]	also measured
NC1=N[C@]2(CO1)c1cc(-c3cccnc3)ccc1Oc1cnc(C3CC3)cc12 [compound 678]	> 7.00	–	–	pIC50 ([1]; read-out: HEK cell assay): 6.00 to 7.00
CC1(COc2ccc3c(c2)[C@]2(COC(N)=N2)c2cc(-c4cccnc4)cnc2O3)COC1 [compound 165]	–	–	–	IC50 [1, 3]: < 0.1 µM; IC50 [2, 4]: < 0.1 µM
CC(=O)c1sccc1-c1ccc2c(c1)[C@@]1(COC(N)=N1)c1cc(OCC(C)(C)C)ccc1O2 [compound 835]	–	< 5.30	5.30 to 6.00	–
Cc1ccc(-c2ccc3c(c2)[C@]2(COC(N)=N2)c2cc(OCC(C)(C)C)ccc2O3)cn1 [compound 786]	6.00 to 7.00	–	–	pIC50 ([1]; read-out: HEK cell assay): 6.00 to 7.00
N#Cc1ccccc1Oc1ccc2c(c1)[C@]1(COC(N)=N1)c1cc(-c3cccnc3)ccc1O2 [compound 986]	6.00 to 7.00	–	–	pIC50 ([1]; read-out: HEK cell assay): 5.30 to 6.00
CC(=O)c1cccc(-c2ccc3c(c2)[C@]2(COC(N)=N2)c2cc(OCC(C)(C)C)ccc2O3)c1 [compound 191]	–	–	–	IC50 [1, 3]: 1 to 5 µM; IC50 [2, 4]: < 0.1 µM
CC1(C)CN(c2cc(F)c3c(c2)[C@]2(COC(N)=N2)c2cc(-c4cncnc4)ccc2O3)CCO1 [compound 505]	> 7.00	–	–	pIC50 [1, 7]: > 7.00
NC1=N[C@@]2(CO1)c1cc(-c3cccnc3)ccc1Oc1ncc(N3CCOCC3)cc12 [compound 539]	–	> 7.00	> 7.00	–
COC(C)(C)C#Cc1cnc2c(c1)[C@@]1(COC(N)=N1)c1cc(-c3cncc(F)c3)ccc1O2 [compound 699]	6.00 to 7.00	–	–	pIC50 ([1]; read-out: HEK cell assay): 5.30 to 6.00
Cn1cc(-c2ccc3c(c2)[C@]2(COC(N)=N2)c2cc(-c4cccnc4)ccc2O3)ccc1=O [compound 611]	–	6.00 to 7.00	> 7.00	–
NC1=N[C@@]2(CO1)c1cc(-c3cccnc3)ccc1Oc1cnc(C3CCOCC3)cc12 [compound 801]	–	> 7.00	> 7.00	–
COC(=O)c1ccc2c(c1)[C@@]1(COC(N)=N1)c1cc(OCC(C)(C)C)ccc1O2 [compound 875]	–	6.00 to 7.00	> 7.00	–
COc1ccc(F)c(-c2ccc3c(c2)C2(COC(N)=N2)c2ccc(C)cc2O3)c1 (stereo not drawn) [Example 19, 2′-(2-fluoro-5-methoxyphenyl)-6′-methylspiro[1,3-oxazole-4,9′-xanthen]-2-amine]	–	–	–	pIC50 ([1]; Table 1, Aβ40, 24 h incubation, read-out: HEK cell assay): 6.00 to 7.00; pIC50 ([2]; Table 1, read-out: BACE1 FRET assay): 5.30 to 6.00
CC(C)(C)COc1ccc2c(c1)[C@]1(COC(N)=N1)c1cc(-c3cccs3)ccc1O2 [compound 834]	–	5.30 to 6.00	> 7.00	–
CC(C)CCCOc1nccc2c1[C@]1(COC(N)=N1)c1cc(-c3cccnc3)ccc1O2 [compound 842]	–	6.00 to 7.00	6.00 to 7.00	–
NC1=N[C@]2(CO1)c1cc(C3=CCOCC3)ccc1Oc1cnc(-c3cccnc3F)cc12 [compound 497]	> 7.00	–	–	pIC50 [1, 7]: > 7.00
NC1=N[C@@]2(CO1)c1cc(-c3cccnc3)ccc1Oc1cnc(N3CCC(=O)CC3)cc12 [compound 442]	> 7.00	–	–	pIC50 [1, 7]: > 7.00
NC1=N[C@]2(CO1)c1cc(C#CC3(O)CCC3)ccc1Oc1ccc(-c3cccnc3)cc12 [compound 942]	> 7.00	–	–	pIC50 ([1]; read-out: HEK cell assay): > 7.00
N#Cc1cccc(-c2cc3c(cn2)Oc2ccc(-c4cccnc4F)cc2[C@@]32COC(N)=N2)c1 [compound 373]	–	–	–	pIC50 [1, 8]: > 7.00; pIC50 [2, 9]: > 7.00
COc1ccc2c(c1)[C@]1(COC(N)=N1)c1cc(NC(=O)[C@H](C)OC)ccc1O2 [compound 535]	–	5.30 to 6.00	5.30 to 6.00	–
CC(=O)COc1ccc2c(c1)[C@@]1(COC(N)=N1)c1cc(-c3cccnc3)cnc1O2 [compound 926]	6.00 to 7.00	–	–	pIC50 ([1]; read-out: HEK cell assay): 6.00 to 7.00
CC1(COc2ccc3c(c2)[C@@]2(COC(N)=N2)c2cc(-c4cccc(Cl)c4)cnc2O3)COC1 [compound 772]	> 7.00	–	–	pIC50 ([1]; read-out: HEK cell assay): 6.00 to 7.00
NC1=N[C@]2(CO1)c1cc(-c3cncnc3)ccc1Oc1c(F)cc(C3=CCOCC3)cc12 [compound 637]	–	6.00 to 7.00	5.30 to 6.00	–
CC1(C)CC(c2cc3c(cn2)Oc2ccc(-c4cccnc4F)cc2[C@@]32COC(N)=N2)=CCO1 [compound 434]	–	–	–	IC50 ([1]; HEK cell assay (uM), HEK cells): < 0.1 µM; IC50 ([2]; BACE1 FRET assay (uM)): < 0.1 µM
CC(C)(C#N)COc1cnc2c(c1)[C@]1(COC(N)=N1)c1cc(-c3cccnc3)ccc1O2 [compound 410]	–	–	–	pIC50 [1, 8]: > 7.00; pIC50 [2, 9]: > 7.00
COc1ccc2c(c1)[C@@]1(COC(N)=N1)c1cc(C(=O)N3CCCC3)ccc1O2 [Example 127, (R)-(2-amino-2′-methoxy-5H-spiro[oxazole-4,9′-xanthene]-7′-yl)(pyrrolidin-1-yl)methanone]	–	–	–	IC50 [1, 3]: 1 to 5 µM; IC50 [2, 4]: > 5 µM
Cc1ccc(-c2cnc3c(c2)[C@]2(COC(N)=N2)c2cc(-c4cncnc4)ccc2O3)cc1 [compound 578]	–	> 7.00	> 7.00	–
